This assay deals with isomerase (Mus musculus (Mouse), UniProt Q91ZQ5). As to the kind of experiment: In vivo murine isomerase assay (recovery of 11-cis-retinal after photobleaching). On the set-up: species or system CD-1 (albino) male mice. The settings on record: for inhibition at 10 mg/kg / inhibition at 1 mg/kg / ED50 / inhibition at 5 mg/kg: mouse; for inhibition at 10 mg/kg / inhibition at 1 mg/kg / inhibition at 5 mg/kg: po, negative numbers leveled to 0%; for inhibition at 10 mg/kg: 10 mg/kg oral gavage; for inhibition at 1 mg/kg: 1 mg/Kg oral gavage; for ED50: estimated, oral gavage, read-out: ED50 (dose of compound that gives 50% inhibition of 11-cis retinal (oxime) recovery); for inhibition at 5 mg/kg: 5 mg/kg oral gavage. As to the method:
The capability of styrenyl derivatives to inhibit isomerase is determined by an in vivo murine isomerase assay. Brief exposure of the eye to intense light (“photobleaching” of the visual pigment or simply “bleaching”) is known to photo-isomerize almost all 11-cis-retinal in the retina. The recovery of 11-cis-retinal after bleaching can be used to estimate the activity of isomerase in vivo. Procedures were performed essentially as described by Golczak et al., Proc. Natl. Acad. Sci. USA 102:8162-67 (2005). See also Deigner et al., Science, 244: 968-71 (1989); Gollapalli et al., Biochim Biophys Acta. 1651: 93-101 (2003); Parish, et al., Proc. Natl. Acad. Sci. USA, 14609-13 (1998); Radu, et al., Proc Natl Acad Sci USA 101: 5928-33 (2004). […] Mice were gavaged with styrenyl derivative compounds, Compound 1 or Compound 25. Compound B was included as a positive control, and Compound A with low activity was also included. After 1-72 hours in the dark, the mice were exposed to photobleaching of 3,000 lux of white light for 10 minutes. The mice were allowed to recover 2 hours in the dark. The animals were then sacrificed by carbon dioxide inhalation. Retinoids were extracted from the eye and the regeneration of 11-cis-retinal was assessed at various time intervals. All steps were performed in darkness with minimal redlight illumination (low light darkroom lights and […] flashlights for spot illumination as needed) (see, e.g., Maeda et al., J. Neurochem 85:944-956, 2003; Van Hooser et al., J Biol Chem 277:19173-82, 2002). After the mice were sacrificed, the eyes were immediately removed and placed in liquid nitrogen. The eyes were then homogenized in a glass/glass homogenizer (Kontes Glass Co., homogenizer & pestle 21) containing 1 ml retinoid analysis buffer (50 mM MOPS, 10 mM NH2OH, 50% EtOH, pH 7.0 (stock buffer was stored in absence of ethanol)). The eyes were homogenized until no visible tissue remained (approximately 3 minutes). The samples were incubated 20 minutes at room temperature (including homogenizing) and then placed on ice. One ml cold EtOH was added to the homogenate to rinse the pestle, and the homogenate mixture was transferred to 7 ml glass screwtop tubes on ice. The homogenizer was rinsed with 7 ml hexane, which was added to the 7 ml tubes on ice. The homogenate was mixed by vortexing at high speed for 1 minute. The phases were separated by centrifugation (5 minutes at 4000 rpm, 4° C.). The upper phase was collected and transferred to a clean glass test tube, taking care to avoid disturbing the interface by leaving approximately 0.2 ml of upper phase in the tube. The tubes with the collected upper phase were placed in a heating block at 25° C. and dried under a stream of Argon ( 30 minutes). The lower phase was again extracted by adding 4 ml hexane, vortexing, and separating the phases by centrifugation. The upper phase was collected as described above and pooled into the drying tubes. The dried samples were solubilized in 300 μl Hexane (Fisher Optima grade) and vortexed lightly. The samples were transferred to clean 300 μl glass inserts in HPLC vials using glass pipette and the vials were crimped shut tightly. […] Part #235341). […] The area under the curve for 11-cis retinal oxime was calculated by Agilent Chemstation software and was recorded manually. Data processing was performed using Prizm software. Positive control mice (no compound administered) were sacrificed fully dark-adapted and the eye retinoids analyzed. Light (bleached) control mice (no compound administered) were sacrificed and retinoids isolated and analyzed immediately after light treatment.

Structures are written as SMILES.

Sequence of isomerase (Q91ZQ5 whole entry): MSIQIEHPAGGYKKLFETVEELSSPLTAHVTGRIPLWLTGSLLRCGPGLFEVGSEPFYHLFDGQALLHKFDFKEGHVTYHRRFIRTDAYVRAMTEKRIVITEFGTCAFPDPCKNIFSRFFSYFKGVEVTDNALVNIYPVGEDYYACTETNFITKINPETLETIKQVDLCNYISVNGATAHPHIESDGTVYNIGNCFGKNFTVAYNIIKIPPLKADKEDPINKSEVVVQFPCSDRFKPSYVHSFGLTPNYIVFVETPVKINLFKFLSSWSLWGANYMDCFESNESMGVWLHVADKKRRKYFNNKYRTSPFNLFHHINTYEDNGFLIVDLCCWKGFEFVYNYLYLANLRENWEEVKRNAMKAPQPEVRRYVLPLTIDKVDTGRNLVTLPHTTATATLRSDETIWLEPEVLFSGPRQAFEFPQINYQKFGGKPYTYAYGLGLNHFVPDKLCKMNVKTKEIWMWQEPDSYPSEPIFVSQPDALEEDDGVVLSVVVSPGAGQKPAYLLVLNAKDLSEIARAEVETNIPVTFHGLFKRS

Turning to `CCc1cccc(C)c1C=Cc1cccc(CCCN)c1` (mixture of isomers) [Example 32, (E/Z)-3-(3-(2-ethyl-6-methylstyryl)phenyl)propan-1-amine], the inhibition (usually how much of the control response was suppressed) at 10 mg/kg (4 h) came out at 52%.

The compound `Cc1cc(C)cc(C=Cc2cccc(CCCN)c2)c1` (mixture of isomers) [Example 40, (E/Z)-4-(3-(3,5-dimethylstyryl)phenyl)propan-1-amine] had an inhibition at 10 mg/kg (4 h) of 2%.

In the case of `COc1ccccc1C=Cc1cccc(CCCN)c1` (mixture of isomers) [Example 41], the inhibition at 10 mg/kg (4 h) worked out at 76%.

Where the note is “4 h”, `CC1=C(/C=C/c2cccc(C(O)CCN)c2)C(C)(C)CCC1` (centres unmarked) [Compound 25, (E)-3-amino-1-(3-(2-(2,6,6-trimethylcyclohex-1-enyl)vinyl)phenyl)propan-1-ol] gave an inhibition at 1 mg/kg of 89% and an inhibition at 10 mg/kg of 100%. For the setting “24 h”, this compound came in with an inhibition at 1 mg/kg of 96%. Moreover, the ED50 (commonly the dose that gives a 50% effect, or the effect in half of the subjects) (mice) was 0.44 mg/kg.

Take `Cc1cccc(C)c1/C=C/c1cccc(CCCN)c1` [Example 1, (E)-3-(3-(2,6-dimethylstyryl)phenyl)propan-1-amine]: the “time of maximum inhibitory effect after gavage” value (isomerase inhibitory activity over time, mice, FIG. 1) was approximately 6 h. For the same compound, the inhibition at 1 mg/kg turned out to be 0% (2 h), 0% (6 h) and 0% (24 h). The inhibition at 5 mg/kg runs as follows: (4 h) 57%; (24 h) 58%. Testing at 10 mg/kg (4 h) gave an inhibition of 80%. In addition, under “mice”, the ED50 is 4.3 mg/kg.

The compound `CNCCCc1cccc(/C=C/c2c(C)cccc2C)c1` [Example 7, (E)-3-(3-(2,6-dimethylstyryl)phenyl)-N-methylpropan-1-amine] gave an inhibition at 10 mg/kg (4 h) of 36% and an inhibition at 10 mg/kg (24 h) of 8%.

With `CC1=C(/C=C/c2cccc(CCCN)c2)C(C)(C)CCC1` [Example 21, (E)-3-(3-(2-(2,6,6-trimethylcyclohex-1-enyl)vinyl)phenyl)propan-1-amine], the inhibition at 10 mg/kg (4 h) amounted to 80%.

On to `NCCCc1cccc(/C=C/C2CCCCC2)c1` [Example 22, (E)-3-(3-(2-cyclohexylvinyl)phenyl)propan-1-amine], for which the inhibition at 10 mg/kg (4 h) worked out at 0%.

With `CCC/C=C/c1cccc(CCCN)c1` [Example 23, (E)-3-(3-(pent-1-enyl)phenyl)propan-1-amine], the inhibition at 10 mg/kg (4 h) came to 0%.

In turn, `CCCCC/C=C/c1cccc(CCCN)c1` [Example 24, (E)-3-(3-(hept-1-enyl)phenyl)propan-1-amine] returned an inhibition at 10 mg/kg (4 h) of 16%.

For the compound `CC1=C(/C=C/c2cccc(CC(C)CN)c2)C(C)(C)CCC1` (centres unmarked) [Example 26, (E)-2-methyl-3-(3-(2-(2,6,6-trimethylcyclohex-1-enyl)vinyl)phenyl)propan-1-amine], the inhibition at 10 mg/kg (4 h) worked out at 80%.

Compound `CC1=C(/C=C/c2cccc(C(C)CCN)c2)C(C)(C)CCC1` (centres unmarked) [Example 27, (E)-3-(3-(2-(2,6,6-trimethylcyclohex-1-enyl)vinyl)phenyl)butan-1-amine] displayed an inhibition at 10 mg/kg (4 h) of 11%.

With `CC1=C(/C=C/c2cccc(OCCN)c2)C(C)(C)CCC1` [Example 31, (E)-2-(3-(2-(2,6,6-trimethylcyclohex-1-enyl)vinyl)phenoxy)ethanamine], the inhibition at 1 mg/kg is, setting by setting: (2 h) 0%; (6 h) 2%; (24 h) 0%. Also, the inhibition at 5 mg/kg is, setting by setting: (4 h) 53%; (24 h) 46%.

For the compound `NCCCc1cccc(/C=C/c2c(Cl)cccc2Cl)c1` [Example 43, (E)-3-(3-(2,6-dichlorostyryl)phenyl)propan-1-amine], the inhibition at 1 mg/kg amounted to 0% (2 h), 7% (6 h) and 16% (24 h). Moreover, the inhibition at 5 mg/kg turned out to be 79% (4 h) and 54% (24 h). Moreover, under “4 h”, the inhibition at 10 mg/kg came out at 94%.

Under “4 h”, `NCCCc1cccc(/C=C/c2c(C(F)(F)F)cccc2C(F)(F)F)c1` [Example 49, (E)-3-(3-(2,6-bis(trifluoromethyl)styryl)phenyl)propan-1-amine] came in with an inhibition at 1 mg/kg of 10% and an inhibition at 5 mg/kg of 60%. Where the note is “24 h”, the inhibition at 1 mg/kg was 0% and the inhibition at 5 mg/kg worked out at 84%.

`CC1=C(/C=C/c2cccc(C(F)CCN)c2)C(C)(C)CCC1` (centres unmarked) [Example 55, (E)-3-fluoro-3-(3-(2-(2,6,6-trimethylcyclohex-1-enyl)vinyl)phenyl)propan-1-amine] gave an inhibition at 1 mg/kg (2 h) of 0%. Also, the inhibition at 5 mg/kg came out at 75% (4 h) and 89% (24 h).

For the compound `CC1=C(/C=C/c2cccc(C(=O)CCN)c2)C(C)(C)CCC1` [Example 56, (E)-3-amino-1-(3-(2-(2,6,6-trimethylcyclohex-1-enyl)vinyl)phenyl)propan-1-one], the inhibition at 1 mg/kg (2 h) was 26%, the inhibition at 1 mg/kg (6 h) was 75% and testing at 1 mg/kg (24 h) gave an inhibition of 77%.

For `CC1=C(/C=C/c2cccc(C(O)C(C)CN)c2)C(C)(C)CCC1` (stereo not drawn) [Example 59, (E)-(syn/anti)-3-amino-2-methyl-1-(3-(2-(2,6,6-trimethylcyclohex-1-enyl)vinyl)phenyl)propan-1-ol], the inhibition at 1 mg/kg runs as follows: (4 h) 0%; (6 h) 1%. The inhibition at 5 mg/kg runs as follows: (4 h) 21%; (24 h) 7%.

As for `CC1=C(/C=C/c2cccc(C(N)CCN)c2)C(C)(C)CCC1` (centres unmarked) [Example 61, (E)-1-(3-(2-(2,6,6-trimethylcyclohex-1-enyl)vinyl)phenyl)propane-1,3-diamine], the inhibition at 1 mg/kg was found to be 0% (4 h) and 0% (6 h). The inhibition at 5 mg/kg is, setting by setting: (4 h) 12%; (24 h) 0%.

In the case of `CC1=C(/C=C/c2cccc(C#CCN)c2)C(C)(C)CCC1` [Example 68, (E)-3-(3-(2-(2,6,6-trimethylcyclohex-1-enyl)vinyl)phenyl)prop-2-yn-1-amine], testing at 10 mg/kg (4 h) gave an inhibition of 75%.

As for `NC[C@H](O)Cc1cccc(/C=C/c2c(Cl)cccc2Cl)c1` [Example 74, (R,E)-1-amino-3-(3-(2,6-dichlorostyryl)phenyl)propan-2-ol], the inhibition at 1 mg/kg is, setting by setting: (2 h) 19%; (6 h) 40%; (24 h) 9%. The inhibition at 5 mg/kg reads like this: (2 h) 83%; (6 h) 91%; (24 h) 56%.

With `NC[C@@H](O)Cc1cccc(/C=C/c2c(Cl)cccc2Cl)c1` [Example 75, (S,E)-1-amino-3-(3-(2,6-dichlorostyryl)phenyl)propan-2-ol], the inhibition at 1 mg/kg reads like this: (2 h) 19%; (6 h) 20%; (24 h) 13%. The inhibition at 5 mg/kg (2 h) was determined as 81%, the inhibition at 5 mg/kg (6 h) was 90% and the inhibition at 5 mg/kg (24 h) worked out at 85%.

Consider `CC(C)(O)/C=C/c1cccc(CCCN)c1` [Example 79, (E)-4-(3-(3-aminopropyl)phenyl)-2-methylbut-3-en-2-ol], for which the inhibition at 5 mg/kg came out at 24% (4 h) and 0% (24 h).

Where the note is “4 h”, `CCCC(O)(/C=C/c1cccc(CCCN)c1)CCC` [Example 83, (E)-4-(3-(3-aminopropyl)styryl)heptan-4-ol] displayed an inhibition at 1 mg/kg of 55% and an inhibition at 5 mg/kg of 97%. Further, under “24 h”, 1 mg/kg produced 0% inhibition and testing at 5 mg/kg gave an inhibition of 3%.

These data come from patent US10201545B2, “Styrenyl derivative compounds for treating ophthalmic diseases and disorders” (Acucela Inc., priority 2007, dated 2019).
